This passage reports GI50 results from patent US12162876B2, “Indazole kinase inhibitor and use thereof” (Tarapeutics Science Inc., priority 2018, dated 2024).

Structures are written as SMILES.

What all share (format): cell-based
One assay concerns BaF3. Put plainly: Cell proliferation (CCK-8, 72 h), parental BaF3. The following applies: Mus musculus, parental BaF3 cells. The source says: (§1) In this example, human gastrointestinal stromal tumor cell line GIST-T1 (expressing wild-type C-KIT gene) (purchased from Cosmo Bio Co., Ltd. (Japan)), human gastrointestinal stromal tumor cell line GIST-T1-T670I (expressing C-KIT-T670I mutant gene) (constructed by our laboratory with CRISPR technology), mouse […] BaF3 (purchased from ATCC) were used. In addition, in this Example, mouse Tel-cKit-BaF3 (stably expressing C-KIT wild-type kinase), mouse Tel-cKit/T670I-BaF3 (stably expressing cKIT T670I mutant kinase), mouse Tel-PDGFRα-BaF3 (stably expressing PDGFRα kinase), mouse Tel-PDGFRβ-BaF3 (stably expressing PDGFRβ kinase), mouse Tel-VEGFR2-BaF3 (stably expressing VEGFR2 kinase), mouse Tel-FLT3-BaF3 (stably expressing FLT3 kinase) were also used. The above cell lines were all constructed by our laboratory. The construction method was as follows: the human C-KIT, C-KIT T670I, PDGFRα, PDGFRβ, VEGFR2, FLT3 kinase region sequences were amplified by PCR respectively and inserted into MSCV-Puro vector (purchased from Clontech) with N-terminal TEL fragment and/or NPM fragment and/or TPR fragment respectively, which was stably transferred into mouse BaF3 cells by retroviral method, and IL-3 growth factor was removed, and finally the cell lines in which protein was transferred depending on C-KIT, C-KIT/T670I, PDGFRα, PDGFRβ, VEGFR2, FLT3 were obtained. The GIST-T1-T670I (expressing C-KIT-T670I mutant gene) cell line was constructed by our laboratory. The construction method was as follows: the sgRNA targeting near the T670 site of the KIT gene was designed by the CRISPR design tool of the Zhang Feng Laboratory of the Massachusetts Institute of Technology (URL: crispr.mit.edu) and cloned into pSpCas9(BB)-2A-Puro vector (Addgene, USA); the obtained vector and a single-stranded oligonucleotide with T670I mutation near the T670 site were co-transfected into the cells, and after antibiotic selection, they were diluted and cultured in a single cell in a 96-well plate; the T670 site of the cells was sequenced and verified by the Sanger sequencing method.

The next assay deals with TEL-cKIT/T670I-BaF3. Put plainly: Cell proliferation (CCK-8, 72 h), TEL-cKIT/T670I-BaF3. The following applies: Mus musculus; BaF3 expressing cKIT T670I mutant kinase, 72 h, CCK-8; read-out: GI50 TEL-cKIT/T670I-BaF3.
From the text: as §1

A further assay concerns TEL-cKIT-BaF3. Put plainly: Cell proliferation (CCK-8, 72 h), TEL-cKIT-BaF3. The following applies: Mus musculus, BaF3 expressing wild-type C-KIT kinase.
From the text: as §1

A further assay concerns TEL-VEGFR2-BaF3. The assay can be described thus: Cell proliferation (CCK-8, 72 h), TEL-VEGFR2-BaF3. The following applies: Mus musculus, BaF3 expressing VEGFR2 kinase.
From the text: as §1

The subject of a further assay is TEL-FLT3-BaF3. Put plainly: Cell proliferation (CCK-8, 72 h), TEL-FLT3-BaF3. The following applies: Mus musculus, BaF3 expressing FLT3 kinase.
From the text: as §1

For the next assay, the system named is TEL-PDGFRα-BaF3. Put plainly: Cell proliferation (CCK-8, 72 h), TEL-PDGFRα-BaF3. The following applies: Mus musculus, BaF3 expressing PDGFRα kinase.
From the text: as §1

The subject of the next assay is TEL-PDGFRβ-BaF3. Put plainly: Cell proliferation (CCK-8, 72 h), TEL-PDGFRβ-BaF3. The following applies: Mus musculus, BaF3 expressing PDGFRβ kinase.
From the text: as §1

The next assay relates to GIST-T1. The assay can be described thus: Cell proliferation (CCK-8, 72 h), GIST-T1. To be noted: Homo sapiens, GISTT1, GIST-T1 (wild-type C-KIT gene).
From the text: as §1

The test system of a further assay is GIST-T1-T670I. The assay can be described thus: Cell proliferation (CCK-8, 72 h), GIST-T1-T670I. To be noted: Homo sapiens, GIST-T1-T670I (C-KIT-T670I mutant, Imatinib-resistant).
From the text: as §1

Regarding `Cc1nc(NC(=O)c2cccc(C(F)(F)F)c2)sc1-c1ccc2c(/C=C/c3ccccn3)n[nH]c2c1` [Compound 6, (E)-N-(4-methyl-5-(3-(2-(pyridin-2-yl)vinyl)-1H-indazol-6-yl)thiazol-2-yl)-3-(trifluoromethyl)benzamide], the GI50 in the assay with BaF3 was > 10000 nM; in the assay with TEL-cKIT/T670I-BaF3, 12 nM; in the assay on TEL-cKIT-BaF3, 24 nM; with TEL-VEGFR2-BaF3, 5 nM; in the assay on TEL-FLT3-BaF3, 2 nM; with TEL-PDGFRα-BaF3, 1 nM. The molecule also yielded a GI50 with TEL-PDGFRβ-BaF3 of 3 nM.

Consider `Cc1nc(NC(=O)c2ccncc2)sc1-c1ccc2c(/C=C/c3ccccn3)n[nH]c2c1` [Compound 4, (E)-N-(4-methyl-5-(3-(2-(pyridin-2-yl)vinyl)-1H-indazol-6-yl)thiazol-2-yl) isonicotinamide], for which the GI50 in the assay on BaF3 is > 10000 nM; in the assay on TEL-cKIT/T670I-BaF3 it was 6 nM; with TEL-cKIT-BaF3, 1550 nM; in the assay on TEL-VEGFR2-BaF3, 7 nM; in the assay on TEL-FLT3-BaF3, 4 nM; in the assay on TEL-PDGFRα-BaF3 it was 2 nM. Further, the GI50 with TEL-PDGFRβ-BaF3 was 1 nM.

Consider `Cc1nc(NC(=O)c2ccc(Cl)c(C(F)(F)F)c2)sc1-c1ccc2c(/C=C/c3ccccn3)n[nH]c2c1` [Compound 2, (E)-4-chloro-N-(4-methyl-5-(3-(2-(pyridin-2-yl)vinyl)-1H-indazol-6-yl)thiazol-2-yl)-3-(trifluoromethyl)benzamide], for which the GI50 with BaF3 is > 10000 nM; in the assay on TEL-cKIT/T670I-BaF3, 84 nM; with TEL-cKIT-BaF3 it was 135 nM; with TEL-VEGFR2-BaF3, 40 nM; in the assay with TEL-FLT3-BaF3 it was 4 nM; in the assay with TEL-PDGFRα-BaF3, 2 nM. Also, in the assay with TEL-PDGFRβ-BaF3, the GI50 is 13 nM.

In the case of `CC(=O)Nc1nc(C)c(-c2ccc3c(/C=C/c4ccccn4)n[nH]c3c2)s1` [Compound 30, (E)-N-(4-methyl-5-(3-(2-(pyridin-2-yl)vinyl)-1H-indazol-6-yl)thiazol-2-yl) acetamide], the GI50 in the assay on BaF3 is 1460 nM; in the assay with TEL-cKIT/T670I-BaF3, 8 nM; with TEL-cKIT-BaF3 it was 47 nM; with TEL-VEGFR2-BaF3, 12 nM; with TEL-FLT3-BaF3, 0.3 nM; with TEL-PDGFRα-BaF3 it was 1 nM. In the assay on TEL-PDGFRβ-BaF3, the GI50 turned out to be 1 nM.

In the case of `Cc1nc(NC(=O)Nc2cccc(C(F)(F)F)c2)sc1-c1ccc2c(/C=C/c3ccccn3)n[nH]c2c1` [Compound 29, (E)-1-(4-methyl-5-(3-(2-(pyridin-2-yl)vinyl)-1H-indazol-6-yl)thiazol-2-yl)-3-(3-(trifluoromethyl)phenyl)urea], the GI50 in the assay with BaF3 was 105 nM; with TEL-cKIT/T670I-BaF3 it was 38 nM; in the assay with TEL-cKIT-BaF3, 25 nM; with TEL-VEGFR2-BaF3 it was 4 nM; in the assay with TEL-FLT3-BaF3 it was 2 nM; in the assay on TEL-PDGFRα-BaF3 it was < 1 nM. Also, the GI50 in the assay with TEL-PDGFRβ-BaF3 was < 1 nM.

Turning to `Cc1nc(NC(=O)c2ccc(CN3CCN(C)CC3)cc2)sc1-c1ccc2c(/C=C/c3ccccn3)n[nH]c2c1` [Compound 1, (E)-N-(4-methyl-5-(3-(2-(pyridin-2-yl)vinyl)-1H-indazol-6-yl)thiazol-2-yl)-4-((4-methylpiperazin-1-yl)methyl)benzamide], the GI50 with BaF3 is 58 nM; with TEL-cKIT/T670I-BaF3, 3 nM; with TEL-cKIT-BaF3, 24 nM; in the assay on TEL-VEGFR2-BaF3, 16 nM; with TEL-FLT3-BaF3 it was < 1 nM; in the assay on TEL-PDGFRα-BaF3, 1 nM. The molecule also had a GI50 in the assay with TEL-PDGFRβ-BaF3 of 3 nM.

`CC(=O)Nc1ncc(-c2ccc3c(/C=C/c4ccccn4)n[nH]c3c2)s1` [Compound 5, (E)-N-(5-(3-(2-(pyridin-2-yl)vinyl)-1H-indazol-6-yl)thiazol-2-yl)acetamide]: the GI50 in the assay on BaF3 was 2920 nM; in the assay on TEL-cKIT/T670I-BaF3 it was 9 nM; in the assay with TEL-cKIT-BaF3 it was 425 nM; with TEL-VEGFR2-BaF3, 38 nM; in the assay with TEL-FLT3-BaF3, < 1 nM; in the assay with TEL-PDGFRα-BaF3, 2 nM. For the same molecule, in the assay on TEL-PDGFRβ-BaF3, the GI50 turned out to be 11 nM.

Regarding `Cc1nc(NC(=O)Cc2cccc3ccccc23)sc1-c1ccc2c(/C=C/c3ccccn3)n[nH]c2c1` [Compound 7, (E)-N-(4-methyl-5-(3-(2-(pyridin-2-yl)vinyl)-1H-indazol-6-yl)thiazol-2-yl)-2-(naphthalene-1-yl)acetamide], the GI50 with BaF3 was found to be 3690 nM; in the assay with GIST-T1, 32 nM; in the assay on TEL-cKIT/T670I-BaF3 it was 94 nM; in the assay on TEL-cKIT-BaF3, 191 nM; with TEL-VEGFR2-BaF3, 15 nM; with TEL-FLT3-BaF3, 3 nM. Further, the GI50 was found to be 2.9 nM in the assay on TEL-PDGFRα-BaF3 and 65 nM in the assay on GIST-T1-T670I.

As for `Cc1ccc(NC(=O)c2ccc(CN3CCN(C)CC3)cc2)cc1Nc1nccc(-c2cccnc2)n1` [Imaitnib, Imatinib, reference compound], the figures for the GI50 with GIST-T1 and in the assay with GIST-T1-T670I were 10 nM and > 10000 nM, respectively.

As to `Cc1nc(NC(=O)CC2CCNCC2)sc1-c1ccc2c(/C=C/c3ccccn3)n[nH]c2c1` [Compound 11, (E)-N-(4-methyl-5-(3-(2-(pyridin-2-yl)vinyl)-1H-indazol-6-yl)thiazol-2-yl)-2-(piperidin-4-yl)acetamide], the GI50 in the assay on BaF3 came out at 980 nM; in the assay with TEL-cKIT/T670I-BaF3, 38 nM; in the assay on TEL-cKIT-BaF3, 480 nM; in the assay with TEL-VEGFR2-BaF3, 350 nM; in the assay on TEL-FLT3-BaF3 it was 48 nM; in the assay on TEL-PDGFRα-BaF3, 1.3 nM. The same molecule gave a GI50 with TEL-PDGFRβ-BaF3 of 3.9 nM.

For `Cc1nc(NC(=O)C2CCNCC2)sc1-c1ccc2c(/C=C/c3ccccn3)n[nH]c2c1` [Compound 14, (E)-N-(4-methyl-5-(3-(2-(pyridin-2-yl)vinyl)-1H-indazol-6-yl)thiazol-2-yl) piperidin-4-carboxamide], the GI50 turned out to be 3100 nM in the assay with BaF3; 85 nM in the assay with TEL-cKIT/T670I-BaF3; 137 nM in the assay with TEL-cKIT-BaF3; 42 nM in the assay on TEL-VEGFR2-BaF3; 1.6 nM in the assay with TEL-FLT3-BaF3; 7.4 nM in the assay on TEL-PDGFRα-BaF3. Also, the GI50 with TEL-PDGFRβ-BaF3 amounted to 18 nM.
